# Laboratory results published in ChEMBL document CHEMBL3132823, “Novel radioiodinated 1,3,4-oxadiazole derivatives with improved in vivo properties for SPECT imaging of -amyloid plaques” (Medchemcomm, 2014).
# Active and inactive are the calls of the source. The calls are words filed in the database; no cut-off is given here.
# Columns and labels:
# [1] = test system: Mus musculus; assay: In vivo binding affinity to amyloid beta plaques in iv dosed wild type mouse brain after 70 mins by autoradiography analysis; type: functional, organism-based; details: tested as the 125I-labelled form
# [2] = target: T1, Amyloid-beta precursor protein (Homo sapiens, UniProt P05067); assay: In vitro binding affinity to amyloid beta plaques in human AD brain at 148 kBq after 1 hr incubation at room temperature by autoradiography analysis; details: tested as the 125I-labelled form
# T1 sequence (P05067 whole entry): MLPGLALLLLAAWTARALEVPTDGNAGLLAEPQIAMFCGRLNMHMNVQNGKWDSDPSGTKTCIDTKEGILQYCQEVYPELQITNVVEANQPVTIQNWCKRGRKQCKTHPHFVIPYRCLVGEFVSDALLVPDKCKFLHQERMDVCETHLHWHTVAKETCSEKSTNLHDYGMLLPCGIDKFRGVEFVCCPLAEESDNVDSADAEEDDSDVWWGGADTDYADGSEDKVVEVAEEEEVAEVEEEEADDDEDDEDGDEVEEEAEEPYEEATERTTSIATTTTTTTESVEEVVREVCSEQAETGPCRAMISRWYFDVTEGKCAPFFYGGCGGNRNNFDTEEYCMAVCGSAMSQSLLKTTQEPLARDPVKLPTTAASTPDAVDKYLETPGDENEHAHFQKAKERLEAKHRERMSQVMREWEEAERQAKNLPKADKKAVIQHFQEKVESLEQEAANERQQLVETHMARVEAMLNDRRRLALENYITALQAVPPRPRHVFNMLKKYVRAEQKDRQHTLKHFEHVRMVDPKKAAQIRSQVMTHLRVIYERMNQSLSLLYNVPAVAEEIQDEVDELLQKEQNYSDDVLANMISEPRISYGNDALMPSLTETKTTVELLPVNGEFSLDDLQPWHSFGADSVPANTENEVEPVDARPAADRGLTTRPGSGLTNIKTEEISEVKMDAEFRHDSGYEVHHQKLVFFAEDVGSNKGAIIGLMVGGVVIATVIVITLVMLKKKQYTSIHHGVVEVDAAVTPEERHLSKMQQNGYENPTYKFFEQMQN
# [3] = test system: Mus musculus; assay: In vivo binding affinity to amyloid beta plaques in iv dosed Tg2576 transgenic mouse brain after 70 mins by autoradiography analysis; type: functional, organism-based; details: tested as the 125I-labelled form
# [4] = Octanol-phosphate buffer partition coefficient, log p of the compound at pH 7.4 by automatic gamma counting; type: physicochemical
# [5] = target: T1, Amyloid-beta precursor protein; assay: Inhibition of [125I]IMPY binding to amyloid beta (1 to 42) aggregates (unknown origin) by gamma counting
# [6] = test system: Mus musculus; assay: In vivo binding affinity to amyloid beta plaques in iv dosed wild type mouse brain at 44 to 48 MBq after 20 to 80 mins by SPECT study; type: functional, organism-based; details: 44 to 48 M, tested as the 125I-labelled form
# [7] = test system: Mus musculus; assay: In vivo binding affinity to amyloid beta plaques in iv dosed Tg2576 transgenic mouse brain at 44 to 48 MBq after 20 to 80 mins by SPECT study; type: functional, organism-based; details: 44 to 48 M, tested as the 125I-labelled form
# [8] = test system: Brain; assay: Biodistribution in iv dosed ddY mouse brain measured per gram of tissue after 60 mins by automatic gamma counting; type: ADME, organism-based; details: in vivo, 1 h
# [9] = test system: Stomach; assay: Biodistribution in iv dosed ddY mouse stomach measured per organ after 2 mins by automatic gamma counting; type: ADME, organism-based; details: in vivo
# [10] = test system: Kidney; assay: Biodistribution in iv dosed ddY mouse kidney measured per gram of tissue after 60 mins by automatic gamma counting; type: ADME, organism-based; details: in vivo, 1 h
# [11] = test system: Spleen; assay: Biodistribution in iv dosed ddY mouse spleen measured per gram of tissue after 2 mins by automatic gamma counting; type: ADME, organism-based; details: in vivo
# [12] = test system: Heart; assay: Biodistribution in iv dosed ddY mouse heart measured per gram of tissue after 30 mins by automatic gamma counting; type: ADME, organism-based; details: in vivo, 0.5 h
# [13] = test system: Kidney; assay: Biodistribution in iv dosed ddY mouse kidney measured per gram of tissue after 10 mins by automatic gamma counting; type: ADME, organism-based; details: in vivo
# [14] = test system: Blood; assay: Biodistribution in iv dosed ddY mouse blood measured per gram of tissue after 2 mins by automatic gamma counting; type: ADME, organism-based; details: in vivo
# [15] = test system: Pancreas; assay: Biodistribution in iv dosed ddY mouse pancreas measured per gram of tissue after 30 mins by automatic gamma counting; type: ADME, organism-based; details: in vivo, 0.5 h
# [16] = test system: Intestine; assay: Biodistribution in iv dosed ddY mouse intestine measured per gram of tissue after 30 mins by automatic gamma counting; type: ADME, organism-based; details: in vivo, 0.5 h
# [17] = test system: Heart; assay: Biodistribution in iv dosed ddY mouse heart measured per gram of tissue after 10 mins by automatic gamma counting; type: ADME, organism-based; details: in vivo
# [18] = test system: Kidney; assay: Biodistribution in iv dosed ddY mouse kidney measured per gram of tissue after 2 mins by automatic gamma counting; type: ADME, organism-based; details: in vivo
# [19] = test system: Blood; assay: Biodistribution in iv dosed ddY mouse blood measured per gram of tissue after 60 mins by automatic gamma counting; type: ADME, organism-based; details: in vivo, 1 h
# [20] = test system: Pancreas; assay: Biodistribution in iv dosed ddY mouse pancreas measured per gram of tissue after 60 mins by automatic gamma counting; type: ADME, organism-based; details: in vivo, 1 h
# [21] = test system: Liver; assay: Biodistribution in iv dosed ddY mouse liver measured per gram of tissue after 30 mins by automatic gamma counting; type: ADME, organism-based; details: in vivo, 0.5 h
# [22] = test system: Pancreas; assay: Biodistribution in iv dosed ddY mouse pancreas measured per gram of tissue after 2 mins by automatic gamma counting; type: ADME, organism-based; details: in vivo
# [23] = test system: Heart; assay: Biodistribution in iv dosed ddY mouse heart measured per gram of tissue after 60 mins by automatic gamma counting; type: ADME, organism-based; details: in vivo, 1 h
# [24] = test system: Stomach; assay: Biodistribution in iv dosed ddY mouse stomach measured per organ after 60 mins by automatic gamma counting; type: ADME, organism-based; details: in vivo, 1 h
# [25] = test system: Brain; assay: Biodistribution in iv dosed ddY mouse brain measured per gram of tissue after 10 mins by automatic gamma counting; type: ADME, organism-based; details: in vivo
# [26] = test system: Liver; assay: Biodistribution in iv dosed ddY mouse liver measured per gram of tissue after 2 mins by automatic gamma counting; type: ADME, organism-based; details: in vivo
# [27] = test system: Pancreas; assay: Biodistribution in iv dosed ddY mouse pancreas measured per gram of tissue after 10 mins by automatic gamma counting; type: ADME, organism-based; details: in vivo
# [28] = test system: Liver; assay: Biodistribution in iv dosed ddY mouse liver measured per gram of tissue after 60 mins by automatic gamma counting; type: ADME, organism-based; details: in vivo, 1 h
# [29] = test system: Intestine; assay: Biodistribution in iv dosed ddY mouse intestine measured per gram of tissue after 60 mins by automatic gamma counting; type: ADME, organism-based; details: in vivo, 1 h
# [30] = test system: Spleen; assay: Biodistribution in iv dosed ddY mouse spleen measured per gram of tissue after 60 mins by automatic gamma counting; type: ADME, organism-based; details: in vivo, 1 h
# [31] = test system: Spleen; assay: Biodistribution in iv dosed ddY mouse spleen measured per gram of tissue after 30 mins by automatic gamma counting; type: ADME, organism-based; details: in vivo, 0.5 h
# [32] = test system: Plasma; assay: Metabolic stability in mouse plasma at 11 kBq after 1 hr at 37 degC by HPLC analysis; type: ADME, cell-free
# [33] = test system: Kidney; assay: Biodistribution in iv dosed ddY mouse kidney measured per gram of tissue after 30 mins by automatic gamma counting; type: ADME, organism-based; details: in vivo, 0.5 h
# [34] = test system: Intestine; assay: Biodistribution in iv dosed ddY mouse intestine measured per gram of tissue after 10 mins by automatic gamma counting; type: ADME, organism-based; details: in vivo
# [35] = test system: Stomach; assay: Biodistribution in iv dosed ddY mouse stomach measured per organ after 10 mins by automatic gamma counting; type: ADME, organism-based; details: in vivo
# [36] = test system: Blood; assay: Biodistribution in iv dosed ddY mouse blood measured per gram of tissue after 10 mins by automatic gamma counting; type: ADME, organism-based; details: in vivo
# [37] = test system: Spleen; assay: Biodistribution in iv dosed ddY mouse spleen measured per gram of tissue after 10 mins by automatic gamma counting; type: ADME, organism-based; details: in vivo
# [38] = test system: Liver; assay: Biodistribution in iv dosed ddY mouse liver measured per gram of tissue after 10 mins by automatic gamma counting; type: ADME, organism-based; details: in vivo
# [39] = test system: Stomach; assay: Biodistribution in iv dosed ddY mouse stomach measured per organ after 30 mins by automatic gamma counting; type: ADME, organism-based; details: in vivo, 0.5 h
# [40] = test system: Blood; assay: Biodistribution in iv dosed ddY mouse blood measured per gram of tissue after 30 mins by automatic gamma counting; type: ADME, organism-based; details: in vivo, 0.5 h
# [41] = test system: Brain; assay: Biodistribution in iv dosed ddY mouse brain measured per gram of tissue after 30 mins by automatic gamma counting; type: ADME, organism-based; details: in vivo, 0.5 h
# [42] = test system: Brain; assay: Biodistribution in iv dosed ddY mouse brain measured per gram of tissue after 2 mins by automatic gamma counting; type: ADME, organism-based; details: in vivo
# [43] = test system: Intestine; assay: Biodistribution in iv dosed ddY mouse intestine measured per gram of tissue after 2 mins by automatic gamma counting; type: ADME, organism-based; details: in vivo
# [44] = test system: Heart; assay: Biodistribution in iv dosed ddY mouse heart measured per gram of tissue after 2 mins by automatic gamma counting; type: ADME, organism-based; details: in vivo
structure (smiles),measurement,setting,value
CN(C)c1ccc(-c2nnc(-c3ccc(I)cc3)o2)cn1,Activity,[1],inactive
same,Activity,[2],Active
same,Activity,[3],Active
same,logD,[4],2.06
same,Ki,[5],24.8 nM
same,inhibition,[5],Dose-dependent effect
CN(C)c1ccc(-c2nnc(-c3ccc(I)cc3)o2)cc1,Ki,[5],3.91 nM
CN(C)c1ccc(-c2nnc(-c3cccc(I)c3)o2)cn1,Activity,[1],inactive
same,Activity,[2],Active
same,Activity,[3],Active
same,logD,[4],2.06
same,Activity,[6],inactive
same,Activity,[7],Active
same,Ki,[5],13.6 nM
same,inhibition,[5],Dose-dependent effect
CN(C)c1ccc(-c2nnc(-c3ccc([125I])cc3)o2)cn1,Drug uptake,[8],0.4 %ID
same,Drug uptake,[9],0.91 %ID
same,Drug uptake,[10],2.99 %ID
same,Drug uptake,[11],2.97 %ID
same,Drug uptake,[12],1.31 %ID
same,Drug uptake,[13],4.61 %ID
same,Drug uptake,[14],1.93 %ID
same,Drug uptake,[15],1.67 %ID
same,Drug uptake,[16],5.29 %ID
same,Drug uptake,[17],2.15 %ID
same,Drug uptake,[18],6.43 %ID
same,Drug uptake,[19],1.79 %ID
same,Drug uptake,[20],1.27 %ID
same,Drug uptake,[21],3.86 %ID
same,Drug uptake,[22],4.92 %ID
same,Drug uptake,[23],1.13 %ID
same,Drug uptake,[24],10.24 %ID
same,Drug uptake,[25],3.03 %ID
same,Drug uptake,[26],6.41 %ID
same,Drug uptake,[27],3.07 %ID
same,Drug uptake,[28],2.61 %ID
same,Drug uptake,[29],8.57 %ID
same,Drug uptake,[30],1.74 %ID
same,Drug uptake,[31],1.72 %ID
same,Stability,[32],Stable
same,Drug uptake,[33],2.96 %ID
same,Drug uptake,[34],3.38 %ID
same,Drug uptake,[35],2.49 %ID
same,Drug uptake,[36],2.33 %ID
same,Drug uptake,[37],3.01 %ID
same,Drug uptake,[38],7.44 %ID
same,Drug uptake,[39],7.25 %ID
same,Drug uptake,[40],1.97 %ID
same,Drug uptake,[41],1.05 %ID
same,Drug uptake,[42],3.88 %ID
same,Drug uptake,[43],1.5 %ID
same,Drug uptake,[44],4.48 %ID
CN(C)c1ccc(-c2nnc(-c3cccc([125I])c3)o2)cn1,Drug uptake,[8],0.48 %ID
same,Drug uptake,[9],0.86 %ID
same,Drug uptake,[10],2.3 %ID
same,Drug uptake,[11],2.67 %ID
same,Drug uptake,[12],1.27 %ID
same,Drug uptake,[13],4.59 %ID
same,Drug uptake,[14],1.82 %ID
same,Drug uptake,[15],1.56 %ID
same,Drug uptake,[16],8.77 %ID
same,Drug uptake,[17],2.39 %ID
same,Drug uptake,[18],8.85 %ID
same,Drug uptake,[19],1.76 %ID
same,Drug uptake,[20],1.28 %ID
same,Drug uptake,[21],8.42 %ID
same,Drug uptake,[22],5.15 %ID
same,Drug uptake,[23],1.14 %ID
same,Drug uptake,[24],7.9 %ID
same,Drug uptake,[25],2.63 %ID
same,Drug uptake,[26],6.06 %ID
same,Drug uptake,[27],2.46 %ID
same,Drug uptake,[28],5.94 %ID
same,Drug uptake,[29],12.08 %ID
same,Drug uptake,[30],1.21 %ID
same,Drug uptake,[31],1.39 %ID
same,Stability,[32],Stable
same,Drug uptake,[33],2.95 %ID
same,Drug uptake,[34],4.08 %ID
same,Drug uptake,[35],2.01 %ID
same,Drug uptake,[36],1.65 %ID
same,Drug uptake,[37],1.74 %ID
same,Drug uptake,[38],11.5 %ID
same,Drug uptake,[39],5.67 %ID
same,Drug uptake,[40],1.67 %ID
same,Drug uptake,[41],0.87 %ID
same,Drug uptake,[42],4.12 %ID
same,Drug uptake,[43],2.28 %ID
same,Drug uptake,[44],5.76 %ID
